Laboratory results reported in ChEMBL document CHEMBL1123562, “N-substituted oxopyrimidines and nucleosides: structure-activity relationship for hypnotic activity as central nervous system depressant” (J Med Chem, 1987).
Values joined by “and” are separate entries in the source; they are usually repeats but may differ in a detail not shown here. Equal entries are not always repeated.

Columns and labels:
[1] = test system: Mus musculus; assay: Tested for PB (pentobarbital)-induced sleep effect expressed as percent control of sleeping time at a dosage (icv) of 3.8 uM concentration; type: functional
[2] = test system: Mus musculus; assay: Hypnotic activity expressed as sleeping time was determined in ddN strain mice by the icv administration of 3.8 uMol/mouse of the compound; None indicates that the mouse could not fall into sleep; type: functional, organism-based
[3] = test system: Mus musculus; assay: Hypnotic activity in ddN strain mice by the iv administration of 0.5 mmol/kg; No activity.; type: functional, organism-based
[4] = test system: Mus musculus; assay: Tested for PB (pentobarbital)-induced sleep effect expressed as percent control of sleeping time at a dosage (icv) of 2.0 uM concentration; type: functional
[5] = test system: Mus musculus; assay: Hypnotic activity expressed as sleeping time was determined in ddN strain mice by the icv administration of 2.0 uMol/mouse of the compound; type: functional
[6] = test system: Mus musculus; assay: Hypnotic activity expressed as sleeping time was determined in ddN strain mice by the iv administration of 0.5 umol/kg of the compound; None indicates that the mouse could not fall into sleep; type: functional, organism-based
[7] = test system: Mus musculus; assay: Hypnotic activity expressed as sleeping time was determined in ddN strain mice by the icv administration of 2.0 uMol/mouse of the compound; None indicates that the mouse could not fall into sleep; type: functional, organism-based
[8] = test system: Mus musculus; assay: Tested for PB (pentobarbital)-induced sleep effect expressed as percent control of sleeping time at a dosage (icv) of 1.0 uM concentration; type: functional
[9] = test system: Mus musculus; assay: Tested for PB (pentobarbital)-induced sleep effect expressed as percent control of sleeping time at a dosage (icv) of 2.4 uM concentration; type: functional
[10] = test system: Mus musculus; assay: Hypnotic activity expressed as sleeping time was determined in ddN strain mice by the iv administration of 0.3 mmol/kg of the compound; None indicates that the mouse could not fall into sleep; type: functional, organism-based
[11] = Partition coefficient is determined for the compound from its equilibrium concentrations in organic phase to that in aqueous buffer of pH 7.4; type: ADME; details: octanol/water
[12] = test system: Mus musculus; assay: Hypnotic activity expressed as sleeping time was determined in ddN strain mice by the iv administration of 0.1 mmol/kg of the compound; None indicates that the mouse could not fall into sleep; type: functional, organism-based
[13] = test system: Mus musculus; assay: Hypnotic activity expressed as sleeping time was determined in ddN strain mice by the iv administration of 0.5 mmol/kg of the compound; type: functional
[14] = test system: Mus musculus; assay: Hypnotic activity expressed as sleeping time was determined in ddN strain mice by the icv administration of 12.0 uMol/mouse of the compound; type: functional
[15] = test system: Mus musculus; assay: Hypnotic activity expressed as sleeping time was determined in ddN strain mice by the iv administration of 0.3 mmol/kg of the compound; type: functional
[16] = test system: Mus musculus; assay: Hypnotic activity expressed as ratio of number of animals slept and total number of animals tested was determined in ddN strain mice by the icv administration of 0.1 mmol/mouse of the compound; 0/8; type: functional
[17] = test system: Mus musculus; assay: Hypnotic activity expressed as sleeping time was determined in ddN strain mice by the icv administration of 3.0 uMol/mouse of the compound; type: functional
[18] = test system: Mus musculus; assay: Hypnotic activity expressed as sleeping time was determined in ddN strain mice by the icv administration of 3.8 uMol/mouse of the compound; type: functional
[19] = test system: Mus musculus; assay: Hypnotic activity expressed as ratio of number of animals slept and total number of animals tested was determined in ddN strain mice by the icv administration of 0.3 mmol/mouse of the compound; 8/8; type: functional
[20] = test system: Mus musculus; assay: Hypnotic activity expressed as sleeping time was determined in ddN strain mice by the icv administration of 0.1 mmol/mouse of the compound; None indicates that the mouse could not fall into sleep; type: functional, organism-based
[21] = test system: Mus musculus; assay: Hypnotic activity expressed as ratio of number of animals slept and total number of animals tested was determined in ddN strain mice by the icv administration of 0.3 mmol/mouse of the compound; 7/8; type: functional
[22] = test system: Mus musculus; assay: Hypnotic activity expressed as ratio of number of animals slept and total number of animals tested was determined in ddN strain mice by the icv administration of 0.5 mmol/kg of the compound; 5/8; type: functional
[23] = test system: Mus musculus; assay: Hypnotic activity expressed as ratio of number of animals slept and total number of animals tested was determined in ddN strain mice by the icv administration of 0.3 mmol/kg of the compound; 2/8; type: functional
[24] = test system: Mus musculus; assay: Hypnotic activity expressed as ratio of number of animals slept and total number of animals tested was determined in ddN strain mice by the icv administration of 0.1 mmol/kg of the compound; 0/8; type: functional
[25] = test system: Mus musculus; assay: Hypnotic activity expressed as sleeping time was determined in ddN strain mice by the icv administration of 1.0 uMol/mouse of the compound; None indicates that the mouse could not fall into sleep; type: functional, organism-based
[26] = test system: Mus musculus; assay: Hypnotic activity expressed as sleeping time was determined in ddN strain mice by the icv administration of 1.0 uMol/mouse of the compound; type: functional
[27] = test system: Mus musculus; assay: Hypnotic activity expressed as ratio of number of animals slept and total number of animals tested was determined in ddN strain mice by the icv administration of 0.3 mmol/kg of the compound; 6/6; type: functional
[28] = test system: Mus musculus; assay: Hypnotic activity expressed as ratio of number of animals slept and total number of animals tested was determined in ddN strain mice by the icv administration of 0.5 mmol/kg of the compound; 4/4; type: functional
[29] = test system: Mus musculus; assay: Hypnotic activity expressed as ratio of number of animals slept and total number of animals tested was determined in ddN strain mice by the icv administration of 0.1 mmol/kg of the compound; 8/8; type: functional

With `Cn1c(=O)ccn(C2O[C@H](CO)[C@@H](O)[C@H]2O)c1=O` (stereo partly drawn) the Control [1] was 117%, the Sleeping time [2] was “None” and the Sleeping time [3] was “None”.

For `Cc1ccc(Cn2c(=O)ccn(C3O[C@H](CO)[C@@H](O)[C@H]3O)c2=O)cc1` (stereo partly drawn), the “Sleeping time (% of control)” value [4] was 308%, the Sleeping time [5] was 36 min and the Sleeping time [6] was “None”.

For `O=c1ccn(Cc2ccccc2)c(=O)[nH]1`, the “Sleeping time (% of control)” value [4] was 86%, the Sleeping time [7] was “None” and the Sleeping time [3] was “None”.

In the case of `Cc1cccc(Cn2c(=O)ccn(C3O[C@H](CO)[C@@H](O)[C@H]3O)c2=O)c1` (stereo partly drawn), the “Sleeping time (% of control)” value [4] is reported as 326%, the Sleeping time [5] is reported as 56 min and the Sleeping time [3] is reported as “None”.

`O=c1ccn([C@@H]2O[C@H](CO)[C@@H](O)[C@H]2O)c(=O)[nH]1` [URIDINE] gave a Control [1] of 138%, a Control [8] of 93% and a Control [9] of 135%. The Sleeping time [2] was “None” and the Sleeping time [3] was “None”.

For `COC[C@H]1O[C@@H](n2ccc(=O)[nH]c2=O)[C@H](OC)[C@@H]1OC`, the Sleeping time [10] was “None”, the Control [4] was 144% and the Sleeping time [7] was “None”. The Partition coefficient [11] was 2.16, the Sleeping time [3] was “None” and the Sleeping time [12] was “None”.

For `CC(=O)OC[C@H]1O[C@@H](n2ccc(=O)[nH]c2=O)[C@H](OC(C)=O)[C@@H]1OC(C)=O` [URIDINE TRIACETATE], the “Sleeping time (% of control)” value [4] was 178%, the Sleeping time [5] was 8 min and the Sleeping time [3] was “None”.

With `O=c1cc[nH]c(=O)[nH]1` [URACIL] the Sleeping time [7] was “None”, the Control [8] was 99% and the Sleeping time [3] was “None”.

Compound `O=c1ccn(Cc2ccccc2)c(=O)n1Cc1ccccc1` has a Control [1] of 112%, a Sleeping time [13] of 17 min and a Sleeping time [14] of 15 min. For the same compound, the Sleeping time [7] was “None”.

For `CC(C)=CCn1c(=O)ccn(C2O[C@H](CO)[C@@H](O)[C@H]2O)c1=O` (stereo partly drawn), the Control [1] was 228%, the Sleeping time [2] was “None” and the Sleeping time [3] was “None”.

With `CCn1c(=O)ccn(C2O[C@H](CO)[C@@H](O)[C@H]2O)c1=O` (stereo partly drawn) the Control [1] was 124%, the Sleeping time [2] was “None” and the Sleeping time [3] was “None”.

With `C=CCn1c(=O)ccn(C2O[C@H](CO)[C@@H](O)[C@H]2O)c1=O` (stereo partly drawn) the Control [1] was 173%, the Sleeping time [2] was “None” and the Sleeping time [3] was “None”.

For `CC(=O)OC[C@H]1O[C@@H](n2ccc(=O)n(Cc3ccccc3)c2=O)[C@H](OC(C)=O)[C@@H]1OC(C)=O`, the “Sleeping time (% of control)” value [4] was 186%, the Sleeping time [13] was 5 min and the Partition coefficient [11] was 32.73. The Sleeping time [5] was 4 min, the Sleeping time [15] was 1 min and the Sleeping time [12] was “None”.

With `O=c1ccn(C2O[C@H](CO)[C@@H](O)[C@H]2O)c(=O)n1Cc1ccc(Cl)cc1` (stereo partly drawn) the Control [1] was 203%, the Sleeping time [5] was 20 min and the Sleeping time [3] was “None”.

With `O=c1ccn(C2O[C@H](CO)[C@@H](O)[C@H]2O)c(=O)n1Cc1ccccc1` (stereo partly drawn) the Sleeping time [10] was “None”, the Activity [16] was 0 and the Control [1] was 404%. For the same compound, the “Sleeping time (% of control)” value [4] was 292%, the Sleeping time [17] was 106 min and the Control [8] was 154%. It also gave a Partition coefficient [11] of 2.16, a Sleeping time [18] of 153 min and an Activity [19] of 8. The Sleeping time [20] was “None”, the Sleeping time [5] was 36 min and 28 min and the Sleeping time [3] was “None”. The Activity [21] was 7 and the Sleeping time [12] was “None”.

With `CCCn1c(=O)ccn(C2O[C@H](CO)[C@@H](O)[C@H]2O)c1=O` (stereo partly drawn) the Control [1] was 134%, the Sleeping time [2] was “None” and the Sleeping time [3] was “None”.

With `O=c1c(F)cn(C2CCCO2)c(=O)n1Cc1ccccc1` (stereo not drawn) the “Sleeping time (% of control)” value [4] was 262%, the Sleeping time [13] was 7 min and the Partition coefficient [11] was 23.94. The Sleeping time [5] was 3 min, the Sleeping time [15] was 2 min and the Sleeping time [12] was “None”.

In the case of `O=c1[nH]c(=O)n(C2CCCO2)cc1F` (stereo not drawn) [TEGAFUR], the Sleeping time [10] is reported as “None”, the “Sleeping time (% of control)” value [4] is reported as 139% and the Sleeping time [7] is reported as “None”. For the same compound, the Partition coefficient [11] was 0.35, the Sleeping time [3] was “None” and the Sleeping time [12] was “None”.

For `CC(c1ccccc1)n1c(=O)ccn(C2O[C@H](CO)[C@@H](O)[C@H]2O)c1=O` (stereo partly drawn), the Control [1] was 303%, the “Sleeping time (% of control)” value [4] was 231% and the Sleeping time [17] was 27 min. For the same compound, the Activity [22] was 5, the Activity [23] was 2 and the Activity [24] was 0. The Sleeping time [5] was 7 min, the Sleeping time [3] was “None” and the Sleeping time [25] was “None”.

For `Cc1ccccc1Cn1c(=O)ccn(C2O[C@H](CO)[C@@H](O)[C@H]2O)c1=O` (stereo partly drawn), the “Sleeping time (% of control)” value [4] was 344%, the Sleeping time [17] was 129 min and the Sleeping time [26] was 45 min. For the same compound, the Activity [27] was 6, the Sleeping time [5] was 72 min and 70 min and the Sleeping time [3] was “None”. For the same compound, the Activity [28] was 4 and the Activity [29] was 8.

With `COC[C@H]1O[C@@H](n2ccc(=O)n(Cc3ccccc3)c2=O)[C@H](OC)[C@@H]1OC` the “Sleeping time (% of control)” value [4] was 200%, the Sleeping time [13] was 29 min and the Partition coefficient [11] was 64.45. The Sleeping time [5] was 6 min, the Sleeping time [15] was 6 min and the Sleeping time [12] was “None”.
